# Inconclusive results are not listed.
# System: M. tuberculosis H37Rv growth inhibition, 7H9 media
# Test: M. tuberculosis growth inhibition, HTS (AID 449762);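 note: bacterial growth assessed after seven days of incubation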
# Conditions: for IC90: measured here: IC90 growth inhibition
SMILES,IC50 [µM],IC90 [µM]
COC(=O)N/N=C/c1c[n+]([O-])c2ccccc2[n+]1[O-],13.2,31.7
CCCn1c(CC)nc([N+](=O)[O-])c1S(=O)(=O)c1ccccc1,7.8,22.6
O=C(c1ccccc1)c1ccc(OCCOCCN2CCN(Cc3ccccc3)CC2)cc1,23.7,37.5
Nc1nonc1C(=O)NCCNCc1c(OCc2ccccc2F)ccc2ccccc12,39.8,50.5
COc1ccc(-n2cc(CNCCc3cscn3)c(-c3ccccc3Cl)n2)cc1,25.6,29.7
CN(C)C/C=C/C(=O)Nc1cccc(-c2c[nH]c3ncnc(Oc4ccc(NC(=O)CC(=O)Nc5ccc(F)cc5)cc4F)c23)c1,7.38,14.7
CCCc1ccc(NC(=O)C2CCN(c3cnccn3)CC2)cc1,53.9,78.7
COc1ccccc1OC(=O)c1ccc(S(=O)(=O)N(C)C)cc1,9.96,18.4
O=[N+]([O-])c1ccc(C2CC(c3ccccc3)=Nc3ccccc3S2)cc1 (stereo not given),5.11,6.66
C/C(Cl)=C\COc1cc(C)nc2c(Br)cccc12,19.7,25.1
CC(=O)N(Cc1ccc(F)cc1)C1=C(NCCc2ccccc2)C(=O)c2ccccc2C1=O,5.83,6.59
O=C(Nc1ccc(OCC(F)(F)C(F)F)c(C(F)(F)F)c1)c1ccc(Cl)cc1,35.6,47.1
OC(CN1CCN(c2ccccn2)CC1)Cn1c2ccccc2c2ccccc21 (stereo not given),36.1,51.7
Cc1nnc(SCc2ccccc2Cl)n(N)c1=O,0.38,5.3
CSC(=S)NCc1cccnc1,11.5,34.7
O=C(COc1cccc(Oc2ccccc2)c1)Nc1ncccn1,37.7,> 100
COc1cc(C)ccc1S(=O)(=O)N1CCN(C23CC4CC(CC(C4)C2)C3)CC1,28.8,44
CC(/C=N/n1c(C2CCCCC2)n[nH]c1=S)=C\c1ccccc1,48.7,54.3

SMILES,IC50 [µM],IC90 [µM]
NC(N)=N/N=C/c1ccc(N(c2ccccc2)c2ccccc2)cc1,10.9,13.7
CN(C)c1ccc(N=Nc2ccccc2C(=O)OCC(=O)NCC2CCCCC2)cc1,11,13.1
CN(C)CCCN(C(=O)c1ccc([N+](=O)[O-])s1)c1nc2cc3c(cc2s1)OCCO3,30.7,45.5
Cc1ccccc1N1CCN(C(=O)c2ccc(Oc3ccc(C(F)(F)F)cn3)cc2)CC1,24.4,60.5
O=C(/C(=C/c1ccc(Cl)cc1)c1nc2ccccc2[nH]1)c1cccs1,21.2,42.7
Cc1nn(-c2ccccc2)c2c1C(c1ccc([N+](=O)[O-])cc1)N1C(=N2)C(=O)Nc2ccccc21 (stereo not given),41.4,> 100
O=C(N/N=C/c1ccc([N+](=O)[O-])o1)c1sc2ccccc2c1Cl,2.65,4.6
Nc1cc([N+](=O)[O-])cc2oc(-c3ccccc3)cc12,98.3,> 100
NC(N)=Nc1nc(-c2ccccc2)c2ccccc2n1,68,87.9
O=c1cc(CCl)nc(Cc2c(Cl)cccc2Cl)[nH]1,0.51,68.7
CC1=NOC(=O)/C1=C/c1ccc(-c2ccc(Cl)cc2)o1,5.22,70.3
CCOC(=O)COc1cc([N+](=O)[O-])cc2cccnc12,15.2,34.6
Cn1c(=O)c(C(=O)NNC(=O)c2cccc(Cl)c2)c(O)c2ccccc21,0.8,1.28
Cc1ccc2[nH]c3c(N4CCN(Cc5ccccc5)CC4)ncnc3c2c1,22.3,42.6
COc1ccc(-c2oc3cccnc3c2/C=C/c2ccc(OC)c(OC)c2)cc1,51.3,> 100
C=CCN(CC(=O)c1sc(C(=O)OCC)nc1C)c1cccc(Br)c1,19.4,28.8
Cc1noc2ncnc(Sc3ccc(Cl)cc3)c12,82.9,> 100
